ChEMBL document CHEMBL1201862, “PubChem BioAssay data set” (2004)
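Dose response: 5 concentrations. Exposure: 48 h. Format: 96-well plates. Endpoint: linear interpolation; highest concentration if not reached. Here, GI50 denotes the concentration required for 50% inhibition of growth.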 Active and inactive are the calls of the source. Cut-off read from the data, not from the text of the source: active = GI50 up to about 1.1 µM and inactive = higher.

How the values were obtained:
Test in all cases: NCI anticancer screen, dose series, 48 h
UACC-257 = test system: UACC-257
786-0 = test system: 786-0
NCI-H522 = test system: NCI-H522
KM12 = test system: KM12
HOP-62 = test system: HOP-62
MOLT-4 = test system: MOLT-4
SK-MEL-2 = test system: SK-MEL-2
SW-620 = test system: SW-620
CAKI-1 = test system: CAKI-1
RPMI-8226 = test system: RPMI-8226
SK-MEL-28 = test system: SK-MEL-28
HCT-15 = test system: HCT-15
U-251 = test system: U-251
NCI-H226 = test system: NCI-H226
SF-539 = test system: SF-539
HCT-116 = test system: HCT-116
A498 = test system: A498

Compound | GI50 (UACC-257) | GI50 (786-0) | GI50 (NCI-H522) | GI50 (KM12) | GI50 (HOP-62) | GI50 (MOLT-4) | GI50 (SK-MEL-2) | GI50 (SW-620) | GI50 (CAKI-1) | GI50 (RPMI-8226) | GI50 (SK-MEL-28) | GI50 (HCT-15) | GI50 (U-251) | GI50 (NCI-H226) | GI50 (SF-539) | GI50 (HCT-116) | GI50 (A498)
O=C(O)C1=C(Cl)c2ccccc2S1(=O)=O | > 100 µM (inactive) | > 100 µM (inactive) | 19.8 µM (inactive) | > 100 µM (inactive) | > 100 µM (inactive) | > 100 µM (inactive) | > 100 µM (inactive) | > 100 µM (inactive) | > 100 µM (inactive) | > 100 µM (inactive) | > 100 µM (inactive) | > 100 µM |  |  |  |  | 
CC1=CP(=O)(OC(C)C)C=C(C)C1=C(Cl)Cl (stereo not given) | 32.2 µM (inactive) | > 100 µM (inactive) | 2.52 µM (inactive) | 22.5 µM (inactive) | > 100 µM (inactive) | 57.4 µM (inactive) | 20.3 µM (inactive) | 44 µM (inactive) |  | 32.7 µM (inactive) | 63.5 µM (inactive) | 46 µM | 35.7 µM (inactive) | 26.2 µM (inactive) | 84.1 µM (inactive) | 24.9 µM (inactive) | 
O=C1C(C2=[N+]([O-])c3ccccc3C2=O)=[N+]([O-])c2ccccc21 |  | 20.6 µM (inactive) |  | > 10 µM (inactive) |  | 15.3 µM (inactive) |  | 21.8 µM (inactive) |  | 20.2 µM (inactive) | 42.9 µM (inactive) |  | 20.4 µM (inactive) | 25.5 µM (inactive) | 20.5 µM (inactive) |  | 25.4 µM (inactive)
NC(=S)N/N=C/c1nccc2ccccc12 |  | 0.2 µM (active) | 0.719 µM (active) | 0.873 µM (active) | 0.619 µM (active) | 0.461 µM (active) | 2.7 µM (inactive) | 0.802 µM (active) | 0.738 µM (active) | 1.22 µM (inactive) | 2.37 µM (inactive) | 0.975 µM | 0.296 µM (active) |  | 0.223 µM (active) | 0.914 µM (active) | 0.515 µM (active)
[O-][Cl+3]([O-])([O-])[O-].c1ccc(-c2[o+]c(-c3ccccc3)c(-c3ccccc3)c(-c3ccccc3)c2-c2ccccc2)cc1 | > 100 µM (inactive) | > 100 µM (inactive) | > 100 µM (inactive) |  | > 100 µM (inactive) | 44.7 µM (inactive) | > 100 µM (inactive) | > 100 µM (inactive) | > 100 µM (inactive) | 24.9 µM (inactive) | > 100 µM (inactive) | > 100 µM | > 100 µM (inactive) | > 100 µM (inactive) | > 100 µM (inactive) | > 100 µM (inactive) | > 100 µM (inactive)
Cc1ccc(Cn2c(C)nc3c2C(=O)c2ccccc2C3=O)cc1 | 11.7 µM (inactive) | 2.18 µM (inactive) | 3.14 µM (inactive) | 4.56 µM (inactive) | 14 µM (inactive) | 0.64 µM (active) | 15.3 µM (inactive) | 3.33 µM (inactive) |  |  | 23.5 µM (inactive) | 0.619 µM | 1.88 µM (inactive) | 6.9 µM (inactive) | 1.32 µM (inactive) | 0.755 µM (active) | 
CN(C(=O)c1ccc([N+](=O)[O-])cc1)c1ccccc1 | > 100 µM (inactive) | > 100 µM (inactive) | > 100 µM (inactive) | > 100 µM (inactive) | > 100 µM (inactive) | > 100 µM (inactive) |  | > 100 µM (inactive) | > 100 µM (inactive) | > 100 µM (inactive) | > 100 µM (inactive) | > 100 µM | > 100 µM (inactive) | > 100 µM (inactive) | > 100 µM (inactive) | > 100 µM (inactive) | > 100 µM (inactive)
CC(C)(C)c1cc([Si](C)(C)C)c(C#N)c([Si](C)(C)C)c1 | 34.3 µM (inactive) | > 100 µM (inactive) | 46.6 µM (inactive) | 88.9 µM (inactive) | > 100 µM (inactive) | 37.2 µM (inactive) | > 100 µM (inactive) | > 100 µM (inactive) | > 100 µM (inactive) |  | > 100 µM (inactive) | > 100 µM | 36.1 µM (inactive) | 87.9 µM (inactive) | > 100 µM (inactive) | 54.8 µM (inactive) | > 100 µM (inactive)
COc1cc(/C=C2\C(=O)N(C(=O)Cc3ccccc3)N=C2C)ccc1O | > 100 µM (inactive) | > 100 µM (inactive) | > 100 µM (inactive) | > 100 µM (inactive) | > 100 µM (inactive) | > 100 µM (inactive) | > 100 µM (inactive) | > 100 µM (inactive) | > 100 µM (inactive) | > 100 µM (inactive) | > 100 µM (inactive) | > 100 µM |  | > 100 µM (inactive) | > 100 µM (inactive) | > 100 µM (inactive) | 
CC1(C)CC(/C=C2/OC(=O)c3ccccc32)=C(C#N)C(=O)O1 | > 100 µM (inactive) | > 100 µM (inactive) | > 100 µM (inactive) | > 100 µM (inactive) | > 100 µM (inactive) | > 100 µM (inactive) | > 100 µM (inactive) | > 100 µM (inactive) | > 100 µM (inactive) | > 100 µM (inactive) | > 100 µM (inactive) | > 100 µM | > 100 µM (inactive) | > 100 µM (inactive) | > 100 µM (inactive) | > 100 µM (inactive) | 
